In series [1] the test system is murine leukemia L1210 cells. The experiment in a line: Growth inhibition test on cultured murine leukemia L1210 cells. It counts as cell-based. Particulars: 48 hours, 37° C., Trypan blue viability. The procedure:
1. Growth inhibition test on cultured murine leukemia L1210 cells
Murine leukemia L1210 cells(1×10^5) were treated with various concentrations of the compounds prepared in the above examples in RPMI 1640 medium supplemented with 10% fetal calf serum, and cultured in a 5% CO2 humidified incubator at 37° C. for 48 hours. Their viability, estimated by staining with 0.17% Trypan blue, was compared with that of control cells cultured in the identical medium without the compounds.

For series [2], the system named is murine leukemia L1210. Description: Antitumor activity test on murine leukemia L1210 in vivo. More on the design: species or system male BDF1 mice. As to conditions: days 1, 5, 9. Here is the method: 2. Antitumor activity test on murine leukemia L1210 in vivo
Murine leukemia L1210 cells were maintained in the peritoneal cavities of 6-week-old male DBA/2 mice by weekly transfer in accordance with the procedure described in cancer chemotherapy Reports, Part 3, 3(2), 7 (1972). Specifically, 1×10^6 leukemia cells were inoculated into the abdominal cavities of 6-week-old male BDF1 mice weighing 21±3 g on day 0. Each treatment group consisted of seven mice. The test compounds were dissolved or suspended in 0.5% carboxymethyl cellulose(CMC)solution (in water) and were administered intraperitoneally on days 1, 5, and 9 relative to the tumor inoculation.
Thirty mice of 6-week-old male BDF1 weighing 21±3 g were used as the control group, which were injected with 0.5% CMC solution only in the same manner as above.
Anti-tumor activities of the compounds were evaluated in terms of the T/C % values calculated from the mean survival time(T) of the compound-treated group over that(C) of the control group. [formula]

Series [3] is described as follows: Test for water solubility. It counts as physicochemical. An excerpt: 3. Test for water solubility
A standard plot of UV absorbance(220 nm) vs. concentration was made; and employed to determine water-solubility.
The mixture was then passed through a 0.45 micron disposable membrane filter before dilution and UV measurement.

We go through 7 compounds from patent publication US5395947A, “Platinum(II) complex and processes for preparing the same” (Sunkyong Industries, Ltd., priority 1991, dated 1995).

For `CC1(C)OC2C[NH2+][Pt-2]3([NH2+]CC2O1)[O]C(=O)C1(CCC1)C(=O)[O]3` [Example 27, cis-cyclobutane-1,1-dicarboxylato[(4S,5S)-4,5-bis(aminomethyl)-2,2-dimethyl-1,3-dioxolane]platinum(II)], the “IC50 (concentration required for 50% inhibition of growth)” value in series [1] was found to be 2.36 µg/mL. Besides, the “T/C (%)” value in series [2] (6.2 mg/kg i.p.) is 112%; in series [2] (12.5 mg/kg i.p.) it was 106%; in series [2] (25 mg/kg i.p.), 124%; in series [2] (50 mg/kg i.p.), 148%; in series [2] (100 mg/kg i.p.) it was 142%. The Solubility in water in series [3] (water) turned out to be 1900 µg/mL.

Regarding `CC(C)C1OC2C[NH2+][Pt-2]3([NH2+]CC2O1)[O]C(=O)C1(CCC1)C(=O)[O]3` [Example 28, cis-cyclobutane-1,1-dicarboxylato[(4R,5R)-4,5-bis(aminomethyl)-2-isopropyl-1,3-dioxolane]platinum(II)], the “IC50 (concentration required for 50% inhibition of growth)” value in series [1] was 1.14 µg/mL. In addition, the “T/C (%)” value is 113% in series [2] (6.2 mg/kg i.p.); 106% in series [2] (12.5 mg/kg i.p.); 126% in series [2] (25 mg/kg i.p.); 133% in series [2] (50 mg/kg i.p.); 130% in series [2] (100 mg/kg i.p.). The same compound showed a Solubility in water in series [3] (water) of 2100 µg/mL.

Regarding `O=C1[O][Pt-2]2([NH2+]CC3OC4(CCCC4)OC3C[NH2+]2)[O]C(=O)C12CCC2` [Example 31, cis-cyclobutane-1,1-dicarboxylato[(4S,5S)-4,5-bis(aminomethyl)-1,3-dioxolane-2-spiro-1'-cyclopentane]platinum(II)], the “IC50 (concentration required for 50% inhibition of growth)” value in series [1] came to 1.75 µg/mL. Besides, the “T/C (%)” value in series [2] (6.2 mg/kg i.p.) stood at 102%; in series [2] (12.5 mg/kg i.p.) it was 109%; in series [2] (25 mg/kg i.p.), 94%; in series [2] (50 mg/kg i.p.), 106%; in series [2] (100 mg/kg i.p.) it was 117%. Moreover, the Solubility in water in series [3] (water) stood at 1900 µg/mL.

With `CCC1OC2C[NH2+][Pt-2]3([NH2+]CC2O1)[O]C(=O)C(CC)C(=O)[O]3` [Example 43, cis-ethylmalonato[(4R,5R)-4,5-bis(aminomethyl)-2-ethyl-1,3-dioxolane]platinum(II)], the “IC50 (concentration required for 50% inhibition of growth)” value in series [1] stood at 0.72 µg/mL. Besides, the “T/C (%)” value in series [2] (25 mg/kg i.p.) is listed as 197%; in series [2] (50 mg/kg i.p.), 245%; in series [2] (100 mg/kg i.p.) it was “toxic”. The compound further showed a Solubility in water in series [3] (water) of 7900 µg/mL.

With `CCC1C(=O)[O][Pt-2]2([NH2+]CC3OC(C(C)C)OC3C[NH2+]2)[O]C1=O` [Example 44, cis-ethylmalonato[(4R,5R)-4,5-bis(aminomethyl)-2-isopropyl-1,3-dioxolane]platinum(II)], the “IC50 (concentration required for 50% inhibition of growth)” value in series [1] stood at 0.47 µg/mL. Also, the figures for the “T/C (%)” value in series [2] (25 mg/kg i.p.), in series [2] (50 mg/kg i.p.) and in series [2] (100 mg/kg i.p.) were 137%, 169% and 243%, respectively. In addition, in series [3] (20° C.), the Solubility in water stood at 7800 µg/mL.

For `CCC1C(=O)[O][Pt]2([NH]C[C@H]3OC4(CCCC4)O[C@@H]3C[NH]2)[O]C1=O` (stereo partly drawn) [Example 45, cis-ethylmalonato[(4R,5R)-4,5-bis(aminomethyl)-1,3-dioxolane-2-spiro-1'-cyclopentane]platinum (II)], the “IC50 (concentration required for 50% inhibition of growth)” value in series [1] turned out to be 1.40 µg/mL. For the same compound, the “T/C (%)” value came to 147% in series [2] (25 mg/kg i.p.), 232% in series [2] (50 mg/kg i.p.) and 216% in series [2] (100 mg/kg i.p.). Further, the Solubility in water in series [3] (water) came out at 2700 µg/mL.

In the case of `N.N.O=C([O-])C1(C(=O)[O-])CCC1.[Pt+2]` [carboplatin, reference compound], in series [1], the “IC50 (concentration required for 50% inhibition of growth)” value was 1.98 µg/mL. Moreover, the “T/C (%)” value in series [2] (6.2 mg/kg i.p.) amounted to 107%; in series [2] (12.5 mg/kg i.p.), 125%; in series [2] (25 mg/kg i.p.) it was 148%; in series [2] (50 mg/kg i.p.) it was 196%; in series [2] (100 mg/kg i.p.), 197%. In addition, the Solubility in water in series [3] (water) amounted to 10000 µg/mL.
